“Also recorded” adds a separate entry of the source.
Key:
[1] = Solubility determination in 0.9% NaCl and 0.5% polysorbate 80 (HPLC of filtrate); assay type: physicochemical; settings: RT, aqueous vehicle with 0.9% NaCl and 0.5% polysorbate 80, at 24 hours
Protocol: Sample preparation: excess Type 4 was added to the vehicle containing 0.9% NaCl and 0.5% polysorbate 80. The mixture was sonicated for 15 minutes, then agitated at 500 rpm at room temperature. At 24 hours, the mixture was filtrated, and filtrate was analyzed by HPLC to determine the solubility. • Instrument: Agilent 1260 • Column: ACE ultracore super C18 (100 mm*4.6 mm*2.5 μm) (P/N: CORE-25A-1046U) • Wavelength: 234 nm • Column Temperature: 20° C. • Column Flow: 1.0 mL/min • Acquisition time: 25 min • Injection volume: 5 μL • Retention time: ˜14 min • Mobile Phase A: 5 mM (NH4)2HPO4 and 5 mM of NH4H2PO4 in H2O • Mobile Phase B: ACN The solubility of Form C (hemihydrate as disclosed in WO 2018/096170) was determined in the same media used to determine the solubility of Type 4 as described above. Sample preparation: excess Form C was added to the vehicle containing 0.9% NaCl and 0.5% polysorbate 80. The mixture was sonicated for 15 minutes, then agitated at 500 rpm at room temperature. […]

[2] = Dynamic vapor sorption (DVS) humidity stability, with XRPD post-DVS; assay type: physicochemical
Protocol: Powder X-Ray Diffraction (PXRD): PXRD diffractograms were acquired on Rigaku Smartlab SE diffractometer using Cu, Kα, Kα1(Å):1.540598, Kα2(Å):1.544426 radiation with a Kα2:Kα1 intensity ratio of 0.50. X-Ray tube setting was 40 kV, 15 mA, Scan Mode 1D. The scan range (2 theta) was 3-40°, step size (2 theta) of 0.02° with scan speed (2 theta) of 10°/min. Dynamic Vapor Sorption (DVS): DVS analysis was performed on an Adventure DVS instrument, using a partial pressure range of 0-90%, with a step size of 10% and dm/dt=0.002. DVS data was collected at 25° C. 2 cycles were performed per analysis. Gas flow of N2 (200 sccm) was used.

[3] = DVS at 25° C., 0-90% partial pressure, 2 cycles

solubility [1] | relative humidity at which the form is stable (DVS) [2, 3] | relative humidity at which weight loss is observed (DVS) [2, 3] | solid form post DVS experiment by XRPD ([2]; after DVS, XRPD) | Structure (SMILES) | stability to humidity (in words) ([2]; conclusion from the characterization data of Example 1)
around 8.4 μg/mL | – | – | – | Cc1nc(N(C)C(=O)Cc2ccc(-c3ccccn3)cc2)sc1S(N)(=O)=O [Form C, N-methyl-N-(4-methyl-5-sulfamoylthiazol-2-yl)-2-(4-(pyridin-2-yl)phenyl)acetamide, reference compound] | –
around 18.2 μg/mL | greater than 20% | less than 10% | confirmed as Type 4 | Cc1nc(N(C)C(=O)Cc2ccc(-c3ccccn3)cc2)sc1S(N)(=O)=O [Type 4, N-methyl-N-(4-methyl-5-sulfamoylthiazol-2-yl)-2-(4-(pyridin-2-yl)phenyl)acetamide] | stable across a large humidity range; also recorded: stable across a wide range of humidity levels

— patent US20260070900A1, “A NOVEL CRYSTALLINE FORM OF PRITELIVIR” (Assembly Biosciences, Inc., priority 2022, published 2026)
